Reference: patent publication US4463004A, “Dioxazabicyclic derivatives” (Delalande S.A., priority 1981, dated 1984)

What was measured:
[1] = tested on: mice; assay: analgesia test using phenylbenzoquinone; type: in vivo; settings: Mus musculus, ip, read-out: Analgesia test ED 50
Protocol: Exp. Biol. Med. 95, 729(1957).
The compounds of the invention were administered intraperitoneally.

[2] = Acute toxicity, intraperitoneal (Miller and Tainter); settings: mouse, in vivo, ip; mice, i.p.; read-out: Acute toxicity LD 50
Protocol: Acute toxicity was evaluated intraperitoneally in mice according to the method described by MILLER and TAINTER in Proc. Soc. Exp. Biol. Med. 57, 261 (1944).

Compound | ED50 [1] | LD50 [2]
CC(C)(C)C12CNCC(CO1)O2 (stereo not drawn) [Code number 1] | 18 mg/kg | 400 mg/kg
c1csc(C23CNCC(CO2)O3)c1 (stereo not drawn) [Code number 4] | 24 mg/kg | > 400 mg/kg
Fc1ccc(C23CNCC(CO2)O3)cc1 (stereo not drawn) [Code number 7, 5-parafluorophenyl-6,8-dioxa-3-azabicyclo [3.2.1] octane meleate] | 10 mg/kg | 300 mg/kg
Clc1cccc(C23CNCC(CO2)O3)c1 (stereo not drawn) [Code number 9] | 10 mg/kg | 240 mg/kg
COc1ccccc1C12CNCC(CO1)O2 (stereo not drawn) [compound 14] | 8 mg/kg | 300 mg/kg
N#Cc1ccc(C23CNCC(CO2)O3)cc1 (stereo not drawn) [compound 19] | 19 mg/kg | 280 mg/kg
O=[N+]([O-])c1ccc(C23CNCC(CO2)O3)cc1 (stereo not drawn) [compound 21] | 10 mg/kg | 290 mg/kg
Clc1ccc(C23CNCC(CO2)O3)cc1Cl (stereo not drawn) [compound 23] | 10 mg/kg | 300 mg/kg
CCN1CC2COC(c3ccc(F)cc3)(C1)O2 (stereo not drawn) [compound 25] | 14 mg/kg | 280 mg/kg
c1ccc(CN2CC3COC(C4CCCCC4)(C2)O3)cc1 (stereo not drawn) [compound 30] | 26 mg/kg | > 400 mg/kg
Fc1ccc(C23CCCNCC(CO2)O3)cc1 (stereo not drawn) [compound 32] | 9 mg/kg | 140 mg/kg
C1C2CC3CC1CC(C14CNCC(CO1)O4)(C2)C3 (stereo not drawn) [compound 36] | 30 mg/kg | 185 mg/kg
c1ccc2cc(C34CNCC(CO3)O4)ccc2c1 (stereo not drawn) [compound 39] | 8 mg/kg | 310 mg/kg
c1ccc(-c2ccc(C34CNCC(CO3)O4)cc2)cc1 (stereo not drawn) [compound 40] | 24 mg/kg | 310 mg/kg
c1cc(C23CNCC(CO2)O3)ccc1C1CCCCC1 (stereo not drawn) [compound 42] | 15 mg/kg | > 400 mg/kg
CC(=O)Nc1ccc(C23CNCC(CO2)O3)cc1 (stereo not drawn) [compound 44] | 7 mg/kg | 380 mg/kg
c1cncc(C23CNCC(CO2)O3)c1 (stereo not drawn) [compound 48] | 58 mg/kg | > 400 mg/kg
O=C(O)c1ccc(C23CNCC(CO2)O3)cc1 (stereo not drawn) [compound 54] | 38 mg/kg | > 400 mg/kg
COc1ccc2cc(C34CNCC(CO3)O4)ccc2c1 (stereo not drawn) [compound 56] | 21 mg/kg | 240 mg/kg
c1ccc2c(C34CNCC(CO3)O4)cccc2c1 (stereo not drawn) [compound 58] | 28 mg/kg | 160 mg/kg
O=C(c1ccccc1)c1cccc(C23CNCC(CO2)O3)c1 (stereo not drawn) [compound 59] | 13.5 mg/kg | 155 mg/kg
